How the values were obtained:
[1] = molecular target: Sodium-dependent serotonin transporter (Homo sapiens, UniProt P31645); test: Displacement of [3H]citalopram from SERT
[2] = molecular target: T1, Sodium-dependent dopamine transporter (Homo sapiens, UniProt Q01959); test: Displacement of [3H]WIN-35 from DAT
[3] = molecular target: Sodium-dependent noradrenaline transporter (Homo sapiens, UniProt P23975); test: Displacement of [3H]nisoxetine from NET
[4] = molecular target: T1, Sodium-dependent dopamine transporter; test: Displacement of [3H]WIN-35 from DAT at 1 uM

Chain of Sodium-dependent noradrenaline transporter (P23975 whole entry): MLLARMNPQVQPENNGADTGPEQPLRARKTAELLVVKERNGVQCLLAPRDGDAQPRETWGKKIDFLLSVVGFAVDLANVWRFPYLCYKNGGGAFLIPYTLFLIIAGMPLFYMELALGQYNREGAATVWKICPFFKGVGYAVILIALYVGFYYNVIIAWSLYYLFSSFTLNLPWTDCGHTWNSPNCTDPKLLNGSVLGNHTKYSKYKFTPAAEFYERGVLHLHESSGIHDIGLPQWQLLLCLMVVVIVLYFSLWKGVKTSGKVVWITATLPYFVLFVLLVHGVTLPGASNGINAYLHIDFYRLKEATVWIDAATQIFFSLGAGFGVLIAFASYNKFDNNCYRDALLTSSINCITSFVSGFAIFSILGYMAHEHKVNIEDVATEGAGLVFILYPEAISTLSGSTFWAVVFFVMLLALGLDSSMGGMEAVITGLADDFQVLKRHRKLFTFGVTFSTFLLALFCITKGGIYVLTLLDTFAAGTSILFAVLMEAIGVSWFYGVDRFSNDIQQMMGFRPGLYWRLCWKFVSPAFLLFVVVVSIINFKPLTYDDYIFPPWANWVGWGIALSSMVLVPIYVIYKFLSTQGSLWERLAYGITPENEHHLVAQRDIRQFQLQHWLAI
Chain of Sodium-dependent serotonin transporter (P31645 whole entry): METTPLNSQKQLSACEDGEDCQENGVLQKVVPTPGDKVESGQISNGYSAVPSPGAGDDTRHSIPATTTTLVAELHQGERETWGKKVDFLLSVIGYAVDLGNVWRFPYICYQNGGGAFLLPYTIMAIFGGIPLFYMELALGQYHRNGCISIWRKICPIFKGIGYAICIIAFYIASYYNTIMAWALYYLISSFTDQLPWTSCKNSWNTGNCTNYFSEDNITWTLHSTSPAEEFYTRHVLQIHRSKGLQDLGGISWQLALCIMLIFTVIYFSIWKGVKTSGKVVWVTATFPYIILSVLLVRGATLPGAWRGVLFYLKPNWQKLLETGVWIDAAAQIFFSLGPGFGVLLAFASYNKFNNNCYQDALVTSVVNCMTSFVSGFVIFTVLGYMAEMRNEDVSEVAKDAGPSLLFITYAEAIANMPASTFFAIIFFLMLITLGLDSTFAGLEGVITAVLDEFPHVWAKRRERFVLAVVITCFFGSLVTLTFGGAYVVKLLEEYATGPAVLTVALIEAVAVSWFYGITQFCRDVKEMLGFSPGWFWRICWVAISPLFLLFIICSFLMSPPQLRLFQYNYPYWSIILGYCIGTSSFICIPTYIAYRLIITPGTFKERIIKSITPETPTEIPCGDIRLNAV
T1 sequence (Q01959 whole entry): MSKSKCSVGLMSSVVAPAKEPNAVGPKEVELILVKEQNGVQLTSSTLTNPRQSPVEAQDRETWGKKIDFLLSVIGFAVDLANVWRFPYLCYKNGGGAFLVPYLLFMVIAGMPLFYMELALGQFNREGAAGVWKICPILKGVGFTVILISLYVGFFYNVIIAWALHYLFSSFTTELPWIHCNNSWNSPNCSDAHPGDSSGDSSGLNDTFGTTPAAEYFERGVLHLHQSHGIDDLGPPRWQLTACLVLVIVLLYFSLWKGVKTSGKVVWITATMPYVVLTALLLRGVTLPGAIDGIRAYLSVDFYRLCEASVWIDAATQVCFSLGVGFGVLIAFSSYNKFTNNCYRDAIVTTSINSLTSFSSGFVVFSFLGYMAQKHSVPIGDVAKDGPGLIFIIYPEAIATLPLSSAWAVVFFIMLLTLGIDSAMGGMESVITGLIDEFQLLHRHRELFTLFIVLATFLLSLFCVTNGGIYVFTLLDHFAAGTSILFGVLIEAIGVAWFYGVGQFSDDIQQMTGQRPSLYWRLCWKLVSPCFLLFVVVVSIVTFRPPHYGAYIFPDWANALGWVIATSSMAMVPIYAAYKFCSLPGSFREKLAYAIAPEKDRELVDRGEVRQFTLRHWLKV

| Ki [1] [nM] | Ki [2] [nM] | Ki [3] [nM] | inhibition [4] [%] | Compound |
| --- | --- | --- | --- | --- |
| 1.5 | 240 | 3.3 | – | Cc1ccccc1CN(CC(C)C)C1CCNCC1 |
| 2.2 | – | 1060 | 1.8 | COc1ccc(CN(CC(C)C)C2CCNCC2)c(OC)c1 |
| 8.4 | – | 91 | – | CC(C)CN(Cc1ccccc1)C1CCNCC1 |
| 0.8 | – | 6.1 | – | Fc1ccc(CN(CC2CC2)C2CCNCC2)c(C(F)(F)F)c1 [listing 1 of 2 here] |
| 4 | – | 4.2 | -8 | CC(C)(O)CN(Cc1ccc(F)cc1C(F)(F)F)C1CCNCC1 |
| 2.8 | – | 9.8 | – | FC(F)(F)CCN(Cc1ccccc1C(F)(F)F)C1CCNCC1 |
| 17 | – | 51 | -8 | FC(F)(F)OCCN(Cc1ccccc1C(F)(F)F)C1CCNCC1 |
| 0.26 | – | 255 | – | CC(C)CN(Cc1cccc(C(F)(F)F)c1)C1CCNCC1 |
| 0.58 | – | 21 | – | N#CCCCN(Cc1ccccc1C(F)(F)F)C1CCNCC1 |
| 2.2 | 98 | 150 | – | Cc1cccc(CN(CC(C)C)C2CCNCC2)c1 |
| 0.7 | – | 6.2 | – | CC(C)(C#N)CCN(Cc1ccc(F)cc1C(F)(F)F)C1CCNCC1 |
| 2.2 | – | 7.1 | – | CC(C)CN(Cc1ccccc1OC(F)(F)F)C1CCNCC1 |
| 1.4 | 210 | 3.2 | – | CC(C)CN(Cc1ccccc1C(F)(F)F)C1CCNCC1 |
| 3.6 | – | 4.1 | – | FC(F)(F)c1ccccc1CN(C1CCCC1)C1CCNCC1 |
| 0.4 | – | 6.5 | – | Fc1ccc(CN(CC2CC2)C2CCNCC2)c(C(F)(F)F)c1 [listing 2 of 2 here] |
| 9.6 | – | 175 | – | CC(C)CN(Cc1cc(C(F)(F)F)ccc1Cl)C1CCNCC1 |
| 1.6 | 83 | 1.4 | – | CC(C)CN(Cc1ccccc1Cl)C1CCNCC1 |
| 4.1 | – | 6 | – | CC(C)CN(Cc1c(F)cccc1C(F)(F)F)C1CCNCC1 |
| 0.3 | 190 | 1.8 | – | CC(C)CN(Cc1ccc(F)cc1C(F)(F)F)C1CCNCC1 |
| 5 | – | – | 1.3 | CC(C)(O)CCN(Cc1ccc(F)cc1C(F)(F)F)C1CCNCC1 |

| Ki [1] [nM] | Ki [2] [nM] | Ki [3] [nM] | inhibition [4] [%] | Compound |
| --- | --- | --- | --- | --- |
| 1.3 | – | 8.3 | – | CCCCN(Cc1ccc(F)cc1C(F)(F)F)C1CCNCC1 |
| 4.3 | 160 | 2.7 | – | CC(C)(C)CN(Cc1ccccc1C(F)(F)F)C1CCNCC1 |
| 1.5 | – | 6 | – | FC(F)(F)c1ccccc1CN(CC1CC1)C1CCNCC1 |
| 3 | – | 9.7 | 5 | CC(C)OCCN(Cc1ccc(F)cc1C(F)(F)F)C1CCNCC1 |
| 0.96 | 230 | 2 | – | CC(C)CN(Cc1ccc(Cl)cc1Cl)C1CCNCC1 |
| 1.1 | – | 3.3 | – | CSc1ccccc1CN(CC(C)C)C1CCNCC1 |
| 0.8 | – | 3.6 | – | CCCN(Cc1ccc(F)cc1C(F)(F)F)C1CCNCC1 |
| 0.48 | – | 420 | – | CC(C)CN(Cc1cccc(C(F)(F)F)c1Cl)C1CCNCC1 |
| 5.6 | – | 26 | – | CC(C)N(Cc1ccccc1C(F)(F)F)C1CCNCC1 |
| 0.39 | – | 4.8 | – | Cc1ccc(CN(CC(C)C)C2CCNCC2)c(C)c1 |
| 3.1 | – | 95.9 | -7 | OCCN(Cc1ccc(F)cc1C(F)(F)F)C1CCNCC1 |
| 0.48 | 201 | 690 | – | CC(C)CN(Cc1cccc(C#N)c1)C1CCNCC1 |
| 0.07 | – | 300 | – | CC(C)CN(Cc1ccc(C(F)(F)F)cc1)C1CCNCC1 |
| 0.4 | – | 13.3 | -4 | N#CCCN(Cc1ccc(F)cc1C(F)(F)F)C1CCNCC1 |
| 1.4 | – | 42.1 | -2 | COc1ccc(F)cc1CN(CC(C)C)C1CCNCC1 |
| 2.5 | – | 3.1 | – | Fc1ccc(CN(CC2CCC2)C2CCNCC2)c(C(F)(F)F)c1 |
| 2.8 | – | 9.6 | -3 | CCOCCN(Cc1ccc(F)cc1C(F)(F)F)C1CCNCC1 |
| 2.2 | – | 6.8 | -8 | COCCCN(Cc1ccccc1C(F)(F)F)C1CCNCC1 |
| 6.9 | – | 6.1 | – | CCC(CC)CN(Cc1ccccc1C(F)(F)F)C1CCNCC1 |
| – | 86.5 | 43 | – | CC(C)CN(Cc1cccc(F)c1)C1CCNCC1 |

| Ki [1] [nM] | Ki [2] [nM] | Ki [3] [nM] | inhibition [4] [%] | Compound |
| --- | --- | --- | --- | --- |
| 2.5 | – | 8.3 | 4 | COCCN(Cc1ccccc1C(F)(F)F)C1CCNCC1 |
| 7.9 | – | 3.4 | – | CC(C)CN(Cc1cc(F)ccc1C(F)(F)F)C1CCNCC1 |
| 1.2 | – | 42 | – | CC(C)CN(Cc1ccccc1C#N)C1CCNCC1 |
| 6.8 | – | 86 | – | CCC(CC)N(Cc1ccccc1C(F)(F)F)C1CCNCC1 |
| 2.1 | – | 5.5 | – | CC(C)CN(Cc1cc(Cl)ccc1Cl)C1CCNCC1 |
| – | – | – | 3 | CN(Cc1ccccc1C(F)(F)F)C1CCNCC1 |
| 2.2 | – | 6.5 | – | CCCN(Cc1ccccc1C(F)(F)F)C1CCNCC1 |
| 15 | – | 145 | 4 | COc1ccccc1CN(CC(C)C)C1CCNCC1 |
| 4.6 | – | 33 | – | FC(F)(F)CN(Cc1ccccc1C(F)(F)F)C1CCNCC1 |
| 8 | – | 61 | -2 | CCN(Cc1ccccc1C(F)(F)F)C1CCNCC1 |
| 0.4 | – | 13.3 | 10 | N#CCCCN(Cc1ccc(F)cc1C(F)(F)F)C1CCNCC1 |
| 1.5 | – | 5.1 | – | CCCCN(Cc1ccccc1C(F)(F)F)C1CCNCC1 |
| 5.8 | 120 | 2.2 | – | CC(C)CN(Cc1ccc(C(F)(F)F)cc1F)C1CCNCC1 |
| 0.28 | – | 190 | – | CC(C)CN(Cc1ccc(C#N)cc1)C1CCNCC1 |
| 0.99 | – | 69 | – | Cc1ccc(CN(CC(C)C)C2CCNCC2)cc1 |
| – | 330 | 15 | – | CC(C)CN(Cc1ccccc1F)C1CCNCC1 |
| 3.1 | 580 | 20 | – | CC(C)CN(Cc1ccc(F)cc1F)C1CCNCC1 |
| 4.2 | – | 15.9 | – | CC(C)(C#N)CN(Cc1ccc(F)cc1C(F)(F)F)C1CCNCC1 |
| 1.1 | – | 5.4 | -7 | COCCCN(Cc1ccc(F)cc1C(F)(F)F)C1CCNCC1 |
| 1.9 | 200 | 78 | – | CC(C)CN(Cc1ccc(F)cc1)C1CCNCC1 |

Reference: ChEMBL document CHEMBL1147706, “N-Alkyl-N-arylmethylpiperidin-4-amines: novel dual inhibitors of serotonin and norepinephrine reuptake” (Bioorg Med Chem Lett, 2006)
